Experimental data from PMC8537445, “D-Peptide-Based Probe for CXCR4-Targeted Molecular Imaging and Radionuclide Therapy” (Pharmaceutics, 2021).
Like-named read-outs stand apart in the source and are kept apart here. Positions of bridges follow the written chain, without caps; N, C: chain ends. Non-standard residues stand in square brackets, D forms with d. Residues, ends and D or L forms follow the SMILES beside them. Groups on a side chain read outwards from the residue. Chains are numbered I, II in the order given. *: point of attachment. DOTA = O=C(O)CN1CCN(CC(=O)O)CCN(CC(=O)*)CCN(CC(=O)O)CC1; 2Nal = N[C@@H](Cc1ccc2ccccc2c1)C(=O)O; dNMeOrn = CN[C@H](CCCN)C(=O)O; 4Amb = NCc1ccc(C(=O)O)cc1

Legend:
[1] = Stability of the peptide in standard labeling conditions (LC-HRMS); type: physicochemical; settings: aqueous buffer pH 4, 1 h at 95 °C
Protocol: First, we successfully confirmed previously reported IC50-values of DV1, DV3 and DV1-k-(DV3) for hCXCR4 in an in vitro binding assay (Table 1) and we assessed the stability of the bivalent peptide DV1-k-(DV3) in standard labeling conditions (aqueous buffer pH 4, 1 h at 95 °C).

[2] = Stability in human serum (radioHPLC); type: in vitro ADME; settings: male, human serum (H4522 human male AB plasma), 5-fold dilution in human serum, 9 days at 37 °C, read-out: intact radioligand in human serum
Protocol: Formulated solutions of [^18F]AlF-NOTA-DV1-k-(DV3) and [^68Ga]Ga-DOTA-DV1-k-(DV3) were evaluated by radioHPLC 5 h and 2 h after radiosynthesis, respectively. In addition, 5-fold dilutions in human serum (H4522 human male AB plasma, USA origin, sterile-filtered, Sigma Aldrich, Saint Louis, MO, USA) were incubated at 37 °C for 2 h and analyzed using radioHPLC.
A formulated solution of [^177Lu]Lu-DOTA-DV1-k-(DV3) was evaluated by radioHPLC after 9 days of storage at 4 °C. A 5-fold dilution of [^177Lu]Lu-DOTA-DV1-k-(DV3) in human serum (H4522 human male AB plasma, USA origin, sterile-filtered, Sigma Aldrich, Saint Louis, MO, USA) was incubated at 37 °C for 9 days and analyzed by radioHPLC.

[3] = target: T1, murine CXCR4 (mCXCR4) (Mus musculus, UniProt P70658); assay: Competition binding with fluorescent murine CXCL12^AF647 on U87.mCXCR4 cells (flow cytometry)
T1 construct: expressed in transfected cells; host or cells: U87 human glioblastoma cells, stably transfected
T1 sequence (P70658 whole entry): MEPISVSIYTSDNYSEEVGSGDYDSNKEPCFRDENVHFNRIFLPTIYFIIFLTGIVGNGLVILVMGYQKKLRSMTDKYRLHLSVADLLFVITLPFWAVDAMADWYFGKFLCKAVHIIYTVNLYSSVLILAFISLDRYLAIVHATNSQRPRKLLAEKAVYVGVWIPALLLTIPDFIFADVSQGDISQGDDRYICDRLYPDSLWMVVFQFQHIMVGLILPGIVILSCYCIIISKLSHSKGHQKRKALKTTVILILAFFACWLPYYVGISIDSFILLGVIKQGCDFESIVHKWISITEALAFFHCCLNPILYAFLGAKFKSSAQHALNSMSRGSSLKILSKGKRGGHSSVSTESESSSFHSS
Protocol: Competition binding studies (IC50) were performed as described using either Jurkat cells and human CXCL12^AF647 (Almac, UK) as fluorescent ligand or U87.mCXCR4 cells and murine CXCL12^AF647 (Almac, UK) as fluorescent ligand. […] IC50-values were calculated using nonlinear regression (four parameters) in GraphPad Prism 9 (Graph Pad Software, San Diego, CA, USA) based on three biological replicates for each concentration tested.

[4] = target: T2, hCXCR4-expressing U87 cells (U87.hCXCR4) (Homo sapiens, UniProt P61073); assay: Binding and internalization assay on U87.hCXCR4 cells; type: cell-based; settings: AMD3100 100 µM
T2 construct: expressed in transfected cells; host or cells: U87 human glioblastoma cells, stably transfected
T2 sequence (P61073 whole entry): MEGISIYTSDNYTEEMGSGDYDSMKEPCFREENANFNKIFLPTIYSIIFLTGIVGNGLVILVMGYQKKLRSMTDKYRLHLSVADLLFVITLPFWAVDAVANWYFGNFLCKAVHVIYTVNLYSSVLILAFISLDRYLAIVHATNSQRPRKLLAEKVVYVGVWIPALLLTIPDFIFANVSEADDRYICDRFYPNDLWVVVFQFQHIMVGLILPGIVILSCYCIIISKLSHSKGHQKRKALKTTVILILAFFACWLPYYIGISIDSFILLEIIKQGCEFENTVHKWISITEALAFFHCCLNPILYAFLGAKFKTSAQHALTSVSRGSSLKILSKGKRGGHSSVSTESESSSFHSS
Protocol: Cellular uptake and internalization of [^18F]AlF-NOTA-DV1-k-(DV3), [^68Ga]Ga-DOTA-DV1-k-(DV3) and [^177Lu]Lu-DOTA-DV1-k-(DV3) (11, 17 and 7 nM respectively) into U87.hCXCR4 cells (2.5 × 10^5 cells) were investigated and compared with [^68Ga]PentixaFor (6 nM) as control. […] After incubation, the supernatant was removed and combined with 3 mL of ice-cold PBS used for rinsing the cells (unbound fraction). Subsequently, cells were incubated twice with 50 mM Glycine-HCl pH 2.8 for 5 min at room temperature, followed by one washing step with ice-cold PBS (membrane-bound fraction). Then, cells were lysed using 350 µL of reagent A100 (Chemometec, Allerod, Denmark). Reagent B (Chemometec, Allerod, Denmark) was used for rinsing the wells and to quench the lysing of the cells. Quantification of the amount of bound and internalized activity was performed using an automated gamma counter. The number of cells per well was counted using an automated counting device (NucleoCounter® NC-100™, Chemometec, Allerod, Denmark). Results were expressed as percentage of applied radioactivity bound to 2.5 × 10^5 cells.

[5] = Ex vivo biodistribution in wild-type mice; settings: mouse, total radioactivity, 75 min p.i., ex vivo gamma counting, mean ± SD
Protocol: The in vivo pharmacokinetics of the selected radioligands were first evaluated in wild-type mice by performing a whole-body biodistribution study. […] Blood and major organs were collected in tared tubes and weighed. Quantification of radioactivity in blood, organs, and other body parts was performed using an automated gamma counter equipped with a 3-inch NaI(Tl) well crystal coupled to a multichannel analyzer, mounted in a sample changer (2480 Wizard^2, Perkin Elmer, Waltham, MA, USA). Counts were corrected for background radiation, physical decay and counter dead time. Results are presented as standardized uptake values (SUV; tissue activity concentration (MBq/g)/[injected dose (MBq)/body weight (g)]).

[6] = in vivo; settings: female, SCID (CB17.Cg-Prkdc<scid>Lyst<bg-J>/Crl), mouse, tumor, iv, total radioactivity
Protocol: The subcutaneous tumor xenograft model was prepared using a published procedure [21]. Briefly, 1 × 10^6 U87.hCXCR4 cells mixed with Cultrex (1:1; Cultrex Basement Membrane Extract, R&D systems, Minneapolis, MN, USA) were implanted subcutaneously into the right shoulder of female 10-week-old SCID mice (CB17.Cg-PrkdcLyst<bg-J>/Crl; Charles River Laboratories, Sulzfeld, Germany). After an average of four weeks, the animals were used in biodistribution and PET/computed tomography (CT) imaging studies. Tumor volumes ranged from 150–574 mm^3 (measured by caliper, h × l × w), while the tumor mass-to-body weight ratio was 0.14–2.34%.
Dynamic PET images were acquired for 60 min immediately after intravenous injection using a beta-cube PET scanner (Molecubes, Gent, Belgium). The mice were kept under gas anesthesia during the entire procedure (2.5% isoflurane in O2 at 1 L/min flow rate), with temperature and respiration monitored throughout. […]
PET data were histogrammed into 14 frames (4 × 15 s, 4 × 1 min, 1 × 5 min, 5 × 10 min) and reconstructed into a 192 × 192 image matrix with 0.4 mm voxels using 30 iterations the native MLEM algorithm with corrections for randoms, scatter, attenuation and decay. […] Radiotracer uptake at 60 min, expressed as SUVmean, was the outcome measure.

## CC(C)C[C@@H](N)C(=O)NCC(=O)N[C@H](C)C(=O)N[C@H](CO)C(=O)N[C@H](Cc1c[nH]c2ccccc12)C(=O)N[C@H](Cc1c[nH]cn1)C(=O)N[C@H](CCCNC(=N)N)C(=O)N1CCC[C@@H]1C(=O)N[C@H](CC(=O)O)C(=O)N[C@H](CCCCN)C(=O)NCCCC[C@@H](NC(=O)[C@H]1CCCN1C(=O)[C@@H](CC(C)C)NC(=O)[C@H]1CCCN1C(=O)[C@@H](CCCNC(=N)N)NC(=O)[C@@H](CCCCN)NC(=O)[C@@H](CCC(N)=O)NC(=O)[C@@H](Cc1ccc(O)cc1)NC(=O)CNC(=O)[C@@H](CC(C)C)NC(=O)[C@@H](CS)NC(=O)[C@@H](CS)NC(=O)[C@@H](CCCCN)NC(=O)[C@@H](CC(=O)O)NC(=O)[C@H]1CCCN1C(=O)[C@@H](CCCNC(=N)N)NC(=O)[C@@H](Cc1c[nH]cn1)NC(=O)[C@@H](Cc1c[nH]c2ccccc12)NC(=O)[C@@H](CO)NC(=O)[C@@H](C)NC(=O)CNC(=O)[C@H](N)CC(C)C)C(=O)O [DV1-k-(DV3)] (I: H-[dL]G[dA][dS][dW][dH][dR][dP][dD][dK][dC][dC][dL]G[dY][dQ][dK][dR][dP][dL][dP][dK]-OH / II: H-[dL]G[dA][dS][dW][dH][dR][dP][dD][dK]; amide I:22-II:C)
[1]
  stability in standard labeling conditions: No degradation products were detected

## CC(C)C[C@@H](N)C(=O)NCC(=O)N[C@H](C)C(=O)N[C@H](CO)C(=O)N[C@H](Cc1c[nH]c2ccccc12)C(=O)N[C@H](Cc1c[nH]cn1)C(=O)N[C@H](CCCNC(=N)N)C(=O)N1CCC[C@@H]1C(=O)N[C@H](CC(=O)O)C(=O)N[C@H](CCCCNC(=O)CN1CCN(CC(=O)O)CCN(CC(=O)O)CCN(CC(=O)O)CC1)C(=O)NCCCC[C@@H](NC(=O)[C@H]1CCCN1C(=O)[C@@H](CC(C)C)NC(=O)[C@H]1CCCN1C(=O)[C@@H](CCCNC(=N)N)NC(=O)[C@@H](CCCCN)NC(=O)[C@@H](CCC(N)=O)NC(=O)[C@@H](Cc1ccc(O)cc1)NC(=O)CNC(=O)[C@@H](CC(C)C)NC(=O)[C@@H](CS)NC(=O)[C@@H](CS)NC(=O)[C@@H](CCCCN)NC(=O)[C@@H](CC(=O)O)NC(=O)[C@H]1CCCN1C(=O)[C@@H](CCCNC(=N)N)NC(=O)[C@@H](Cc1c[nH]cn1)NC(=O)[C@@H](Cc1c[nH]c2ccccc12)NC(=O)[C@@H](CO)NC(=O)[C@@H](C)NC(=O)CNC(=O)[C@H](N)CC(C)C)C(=O)O [[^177Lu]Lu-DOTA-DV1-k-(DV3), metal not drawn] (I: H-[dL]G[dA][dS][dW][dH][dR][dP][dD][dK][dC][dC][dL]G[dY][dQ][dK][dR][dP][dL][dP][dK]-OH / II: H-[dL]G[dA][dS][dW][dH][dR][dP][dD][dK](DOTA); amide I:22-II:C)
[2]
  remaining at 216 h: > 98%

## CN1C(=O)[C@@H](Cc2ccc(O)cc2)NC(=O)CNC(=O)[C@H](Cc2ccc3ccccc3c2)NC(=O)[C@H](CCCNC(=N)N)NC(=O)[C@H]1CCCNC(=O)c1ccc(CNC(=O)CN2CCN(CC(=O)O)CCN(CC(=O)O)CCN(CC(=O)O)CC2)cc1 [[^natGa]PentixaFor, metal not drawn] (cyclo([dY][dNMeOrn]([4Amb-DOTA])R[2Nal]G))
[3]; read-out: IC50 [nM] to mCXCR4, murine CXCL12^AF647 as fluorescent ligand, mean ± SD, n = 3
  IC50: > 1000 nM

## CN1C(=O)[C@@H](Cc2ccc(O)cc2)NC(=O)CNC(=O)[C@H](Cc2ccc3ccccc3c2)NC(=O)[C@H](CCCNC(=N)N)NC(=O)[C@H]1CCCNC(=O)c1ccc(CNC(=O)CN2CCN(CC(=O)O)CCN(CC(=O)O)CCN(CC(=O)O)CC2)cc1 [[^68Ga]PentixaFor, metal not drawn] (cyclo([dY][dNMeOrn]([4Amb-DOTA])R[2Nal]G))
[4]
  blocking of cellular uptake by excess AMD3100: completely blocked
[5]; blood, + AMD3100 5 mg/kg, n: PentixaFor 1, 18F 2, 68Ga 4, 177Lu 3, read-out: blood uptake
  SUV at 1.25 h: 0.5 SUV
[5]; blood, tracer alone, n: PentixaFor 3, 18F 5, 68Ga 4, 177Lu 3, read-out: blood uptake
  SUV at 1.25 h: 0.6 ± 0.1 SUV
[5]; bone (femur harboring bone marrow), tracer alone, n: PentixaFor 3, 18F 5, 68Ga 4, 177Lu 3, read-out: bone uptake (femur harboring bone marrow)
  SUV at 1.25 h: 0.2 ± 0.01 SUV
[5]; brain, + AMD3100 5 mg/kg, n: PentixaFor 1, 18F 2, 68Ga 4, 177Lu 3, read-out: brain uptake
  SUV at 1.25 h: 0.02 SUV
[5]; brain, tracer alone, n: PentixaFor 3, 18F 5, 68Ga 4, 177Lu 3, read-out: brain uptake
  SUV at 1.25 h: 0.03 ± 0.01 SUV
[5]; heart, + AMD3100 5 mg/kg, n: PentixaFor 1, 18F 2, 68Ga 4, 177Lu 3, read-out: heart uptake
  SUV at 1.25 h: 0.3 SUV
[5]; heart, tracer alone, n: PentixaFor 3, 18F 5, 68Ga 4, 177Lu 3, read-out: heart uptake
  SUV at 1.25 h: 0.3 ± 0.02 SUV
[5]; kidneys, tracer alone, n: PentixaFor 3, 18F 5, 68Ga 4, 177Lu 3, read-out: kidneys uptake
  SUV at 1.25 h: 1.9 ± 1.1 SUV
[5]; liver, + AMD3100 5 mg/kg, n: PentixaFor 1, 18F 2, 68Ga 4, 177Lu 3, read-out: liver uptake
  SUV at 1.25 h: 0.5 SUV
[5]; liver, tracer alone, n: PentixaFor 3, 18F 5, 68Ga 4, 177Lu 3, read-out: liver uptake
  SUV at 1.25 h: 0.6 ± 0.1 SUV
[5]; lungs, + AMD3100 5 mg/kg, n: PentixaFor 1, 18F 2, 68Ga 4, 177Lu 3, read-out: lungs uptake
  SUV at 1.25 h: 0.7 SUV
[5]; lungs, tracer alone, n: PentixaFor 3, 18F 5, 68Ga 4, 177Lu 3, read-out: lungs uptake
  SUV at 1.25 h: 0.7 ± 0.1 SUV
[5]; muscle, + AMD3100 5 mg/kg, n: PentixaFor 1, 18F 2, 68Ga 4, 177Lu 3, read-out: muscle uptake
  SUV at 1.25 h: 0.2 SUV
[5]; muscle, tracer alone, n: PentixaFor 3, 18F 5, 68Ga 4, 177Lu 3, read-out: muscle uptake
  SUV at 1.25 h: 0.2 ± 0.03 SUV
[5]; pancreas, + AMD3100 5 mg/kg, n: PentixaFor 1, 18F 2, 68Ga 4, 177Lu 3, read-out: pancreas uptake
  SUV at 1.25 h: 0.3 SUV
[5]; pancreas, tracer alone, n: PentixaFor 3, 18F 5, 68Ga 4, 177Lu 3, read-out: pancreas uptake
  SUV at 1.25 h: 0.3 ± 0.1 SUV
[5]; spleen, + AMD3100 5 mg/kg, n: PentixaFor 1, 18F 2, 68Ga 4, 177Lu 3, read-out: spleen uptake
  SUV at 1.25 h: 0.3 SUV
[5]; spleen, tracer alone, n: PentixaFor 3, 18F 5, 68Ga 4, 177Lu 3, read-out: spleen uptake
  SUV at 1.25 h: 0.3 ± 0.02 SUV
[6]
  SUV at 1 h: 2.9 SUV

## c1cc(CN2CCCNCCNCCCNCC2)ccc1CN1CCCNCCNCCCNCC1 [AMD3100]
[3]; murine CXCL12^AF647 as fluorescent ligand, mean ± SD, n = 3, read-out: IC50 [nM] to mCXCR4
  IC50: 123 ± 17 nM
